Literature values as cited in US9199980B2, “Compounds” (CHIESI FARMACEUTICI S.p.A., priority 2012, dated 2015).

Key:
[1] = tested on: smoking model of COPD in mice
[2] = patients with severe disease, frequent exacerbations and mucus hypersecretion

Which “reduction of the numbers of neutrophils in sputum” value (COPD patients; COPD patients, oral, given over 4 weeks) does the source give for O=C(Nc1c(Cl)cncc1Cl)c1ccc(OC(F)F)c(OCC2CC2)c1 [roflumilast] here?
The value was 36%.

What about the “improvement of FEV 1” value (COPD patients; [2]) of the same molecule?
The value was “approximately 50 ml”.

What about the reduction of exacerbation (COPD patients; [2]) of the same molecule?
Its reduction of exacerbation is “about 15%”.

What about the “effect on lung inflammation and emphysema” value [1] of the same molecule?
Its value is “inhibits lung inflammation and emphysema”.
